Test results reported in US20050130989A1, “N-arylheteroaromatic products compositions containing them and use thereof” (Aventis Pharma S. A., priority 2003, published 2005).
pIC50: −log10 of the molar value.

How the values were obtained:
[1] = tested on: HDMEC cells (Human Dermal Microvascular Endothelial Cells); experiment: Detachment of endothelial cells (test for determining the inhibition of vascularization); format: cell-based; conditions: two hours of treatment, calcein labeling, relative to untreated control
Description: A test for determining the detachment of the endothelial cells was developed in order to select the products with regard to their “in vitro” activity. This test for determining the detachment of endothelial cells is characterized in that the endothelial cells, inoculated into plates whose bottom is covered with a binder preferably chosen from gelatin, fibronectin and vitronectin, after culturing, are supplemented with a medium containing the test compound, and the cells are then labeled with a fluorescent substance, the, cells which have become detached are removed by washing and the fluorescence of the remaining cells is counted in a fluorimeter.
This test consists in measuring the detachment of endothelial cells cultured on substrata based on a binder preferably chosen from fibronectin, vitronectin and gelatin. […] The fluorescence of the remaining cells is counted in a fluorimeter. […]
The evaluation of the detachment of the endothelial cells in vitro is determined in the following manner. […] The fluorescence of the cells that remain attached to the substratum of the well is counted using a fluorimeter, Spectrafluor Plus (Tecan excitation 485 nm, and emission 535 nm). The data are the mean of six different samples and are expressed as the percentage of the control (untreated cells). […]

tubulin = molecular target: T1, tubulin (Sus scrofa, UniProt P02550+P02554); experiment: Evaluation of the inhibition of tubulin polymerization (turbidimetry); format: biochemical, pig; conditions: tubulin 10 μm (1 mg/ml), 37° C., turbidity at 350 nm; concentration that inhibits the rate of polymerization by 50%; read-out: Inhibition of tubulin polymerization IC 50 (μm)
T1 construct: Tubulin is purified from pig brain according to published methods; from tissue; host or cells: pig brain
T1 sequence (P02550 whole entry): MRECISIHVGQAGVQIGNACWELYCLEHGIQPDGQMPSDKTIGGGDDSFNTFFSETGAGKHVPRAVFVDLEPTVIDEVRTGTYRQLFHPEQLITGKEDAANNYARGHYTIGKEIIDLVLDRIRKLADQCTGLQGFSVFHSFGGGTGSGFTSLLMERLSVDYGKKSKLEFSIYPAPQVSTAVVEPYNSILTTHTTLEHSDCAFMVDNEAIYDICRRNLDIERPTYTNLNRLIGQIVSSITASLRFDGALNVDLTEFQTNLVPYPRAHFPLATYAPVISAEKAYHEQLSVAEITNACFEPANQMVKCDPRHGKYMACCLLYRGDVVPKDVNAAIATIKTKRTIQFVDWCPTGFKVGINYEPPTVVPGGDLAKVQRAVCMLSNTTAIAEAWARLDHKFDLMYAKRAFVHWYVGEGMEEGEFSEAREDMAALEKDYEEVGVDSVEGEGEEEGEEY
T1 sequence (P02554 whole entry): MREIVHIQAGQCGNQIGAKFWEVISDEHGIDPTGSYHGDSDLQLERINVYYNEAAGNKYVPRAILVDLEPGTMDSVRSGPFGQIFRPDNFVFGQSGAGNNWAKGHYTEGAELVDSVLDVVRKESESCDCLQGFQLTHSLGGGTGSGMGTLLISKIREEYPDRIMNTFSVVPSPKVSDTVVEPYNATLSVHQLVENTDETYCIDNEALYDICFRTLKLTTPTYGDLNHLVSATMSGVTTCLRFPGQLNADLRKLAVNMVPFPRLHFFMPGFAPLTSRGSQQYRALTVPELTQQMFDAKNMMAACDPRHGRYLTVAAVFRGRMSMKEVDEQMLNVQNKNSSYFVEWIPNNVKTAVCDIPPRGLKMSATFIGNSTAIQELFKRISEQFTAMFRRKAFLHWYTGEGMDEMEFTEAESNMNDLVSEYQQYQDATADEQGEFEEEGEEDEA
How it was run: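 Pig brain tubulin (>95% pure), 10 μm in MES pH 6.8/30% glycerol buffer plus 1 mM GTP and 6 mM MgCl2, with compound at 0.5–10 μm added before polymerization. Polymerization triggered by shift from 6° C to 37° C, followed by turbidity at 350 nm; IC50 is 50% inhibition of polymerization rate.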

HCT116 cells = experiment: Inhibition of proliferation of the human colon tumor line HCT116 ([14C]-thymidine incorporation); format: cell-based; conditions: Homo sapiens, HCT-116, 48 h, 48 hours at 37° C., read-out: Inhibition of HCT116 proliferation IC 50 (μm)
How it was run: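 HCT116 cells (5000/well) in DMEM with 10% fetal calf serum incubated 48 h at 37° C with [14C]-thymidine (0.1 μCi/well) and compound up to 10 μm (DMSO ≤0.5%). Incorporated radioactivity counted; IC50 is concentration cutting radioactivity by 50% versus untreated control.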

Compound	pIC50 (tubulin)	pIC50 (HCT116 cells)	melting point	Percentage detachment of HDMEC at 1 μm [1]
Cc1cc(C(=O)N2CCN(c3ccc(C)c(C)c3)CC2)n(-c2ccccc2)n1 [Example 2, [4-(3,4-Dimethylphenyl)piperazin-1-yl](5-methyl-2-phenyl-2H-pyrazol-3-yl)methanone]	6.22	6.80	–	16%
O=C(c1cccn1-c1ccccc1)N1CCN(c2cccc(Cl)c2)CC1 [Example 6, [4-(3-Chlorophenyl)piperazin-1-yl](1-phenyl-1H-pyrrol-2-yl)methanone]	5.92	7.42	105 °C	–
Cc1cc(C(=O)N2CCN(c3cnccn3)CC2)n(-c2ccccc2)n1 [Example E19, (5-Methyl-2-phenyl-2H-pyrazol-3-yl)(2,3,5,6-tetrahydro-[1,2′]bipyrazinyl-4-yl)-methanone]	5.22	7.40	129 °C	–
Cc1cc(C(=O)N2CCN(c3cccc(OC(F)(F)F)c3)CC2)n(-c2ccccc2)n1 [Example E11, [4-(3-Trifluoromethyloxyphenyl)piperazin-1-yl](5-methyl-2-phenyl-2H-pyrazol-3-yl)methanone]	6.00	7.92	107 °C	–
Cc1cc(C(=O)N2CCN(c3cccc(Br)c3)CC2)n(-c2ccccc2)n1 [Example E6, [4-(3-Bromophenyl)piperazin-1-yl](5-methyl-2-phenyl-2H-pyrazol-3-yl)methanone]	6.05	8.92	138 °C	–
Cc1cc(C(=O)N2CC=C(c3ccccc3)CC2)n(-c2ccccc2)n1 [Example 4, (4-Phenyl-1,2,3,6-tetrahydropyridin-1-yl)(5-methyl-2-phenyl-2H-pyrazol-3-yl)-methanone]	5.52	7.23	68 °C	–
Cc1cc(C(=O)N2CCN(c3cccc(C(N)=O)c3)CC2)n(-c2ccccc2)n1 [Example E23, 3-[4-(5-Methyl-2-phenyl-2H-pyrazole-3-carbonyl)piperazin-1-yl]benzamide]	6.49	8.00	186 °C	–
Cc1cc(C(=O)N2CCN(c3nccc4ccccc34)CC2)n(-c2ccccc2)n1.Cl [Example E15, [4-(Isoquinolin-1-yl)piperazin-1-yl](5-methyl-2-phenyl-2H-pyrazol-3-yl)-methanone hydrochloride]	4.85	6.62	128 °C	–
Cc1cc(C(=O)N2CCN(c3cccc(Cl)c3)CC2)n(-c2ccccc2)n1 [Example 1, [4-(3-Chlorophenyl)piperazin-1-yl](5-methyl-2-phenyl-2H-pyrazol-3-yl)methanone]	6.22	8.70	–	22%
Cc1cc(C(=O)N2CCN(c3cccc(Cl)c3)CC2)n(-c2cccnc2)n1 [Example E52, [4-(3-Chlorophenyl)piperazin-1-yl][5-methyl-2-(pyrid-3-yl)-2H-pyrazol-3-yl]methanone]	5.85	7.99	124 °C	–
Cc1cc(C(=O)N2CCN(c3cccc(N)c3)CC2)n(-c2ccccc2)n1 [Example E9, [4-(3-Aminophenyl)piperazin-1-yl](5-methyl-2-phenyl-2H-pyrazol-3-yl)methanone]	5.52	7.27	158 °C	–
Cc1cc(C(=O)N2CCN(c3ccc4c(c3)OCO4)CC2)n(-c2ccccc2)n1 [Example E12, [4-(1,3-Benzodioxol-5-yl)piperazin-1-yl](5-methyl-2-phenyl-2H-pyrazol-3-yl)-methanone]	5.64	8.51	128 °C	–

Continued, in another order:

pIC50 (tubulin)	pIC50 (HCT116 cells)	melting point	Compound	Percentage detachment of HDMEC at 1 μm [1]
5.43	6.70	116 °C	COc1cc(OC)cc(N2CCN(C(=O)c3cc(C(C)C)nn3-c3ccccc3)CC2)c1 [Example E71, [4-(3,5-Dimethoxyphenyl)piperazin-1-yl](5-isopropyl-2-phenyl-2H-pyrazol-3-yl)methanone]	–
5.68	7.95	180 °C	CNC(=O)c1cccc(N2CCN(C(=O)c3cc(C)nn3-c3ccccc3)CC2)c1 [Example E116, N-Methyl-3-[4-(5-methyl-2-phenyl-2H-pyrazole-3-carbonyl)piperazin-1-yl]-benzamide]	–
6.21	7.95	60 °C	COc1cc(OC)cc(N2CCN(C(=O)c3cc(C)nn3-c3cccnc3)CC2)c1 [Example E53, [4-(3,5-Dimethoxyphenyl)piperazin-1-yl][5-methyl-2-(pyrid-3-yl)-2H-pyrazol-3-yl]methanone]	–
5.85	7.98	134 °C	CC(=O)c1cccc(N2CCN(C(=O)c3cc(C)nn3-c3ccccc3)CC2)c1 [Example E107, 1-{3-[4-(5-Methyl-2-phenyl-2H-pyrazole-3-carbonyl)piperazin-1-yl]phenyl}ethanone]	–
5.64	6.39	160 °C	O=C(c1cc(C(F)(F)F)nn1-c1ccccc1)N1CCN(c2cccc(Cl)c2)CC1 [Example E118, [4-(3-Chlorophenyl)piperazin-1-yl](2-phenyl-5-trifluoromethyl-2H-pyrazol-3-yl)-methanone]	–
5.92	7.99	160 °C	NC(=O)c1cccc(N2CCN(C(=O)c3cc(C(F)(F)F)nn3-c3ccccc3)CC2)c1 [Example E119, 3-[4-(2-Phenyl-5-trifluoromethyl-2H-pyrazole-3-carbonyl)piperazin-1-yl]benzamide]	–
6.00	7.39	132 °C	Cc1cc(C(=O)N2CCN(c3cccnc3)CC2)n(-c2cccc(F)c2)n1 [Example E58, [2-(3-Fluorophenyl)-5-methyl-2H-pyrazol-3-yl](4-pyrid-3-ylpiperazin-1-yl)methanone]	–
